This passage reports inhibition, IC50 and melting point results from US6686390B2, “Compounds having antiinflamatory activity: process for their preparation and pharmaceutical compositions containing them” (Dr. Reddy's Laboratories Limited, priority 2000, dated 2004).

The target of one data set is T1, cox-1 enzyme (Ovis aries, UniProt P05979).
T1 construct: Microsomal fraction of ram seminal vesicles used as a source of cox-1 enzyme; from tissue; host or cells: ram seminal vesicles (microsomal fraction)
T1 sequence (P05979 25-600): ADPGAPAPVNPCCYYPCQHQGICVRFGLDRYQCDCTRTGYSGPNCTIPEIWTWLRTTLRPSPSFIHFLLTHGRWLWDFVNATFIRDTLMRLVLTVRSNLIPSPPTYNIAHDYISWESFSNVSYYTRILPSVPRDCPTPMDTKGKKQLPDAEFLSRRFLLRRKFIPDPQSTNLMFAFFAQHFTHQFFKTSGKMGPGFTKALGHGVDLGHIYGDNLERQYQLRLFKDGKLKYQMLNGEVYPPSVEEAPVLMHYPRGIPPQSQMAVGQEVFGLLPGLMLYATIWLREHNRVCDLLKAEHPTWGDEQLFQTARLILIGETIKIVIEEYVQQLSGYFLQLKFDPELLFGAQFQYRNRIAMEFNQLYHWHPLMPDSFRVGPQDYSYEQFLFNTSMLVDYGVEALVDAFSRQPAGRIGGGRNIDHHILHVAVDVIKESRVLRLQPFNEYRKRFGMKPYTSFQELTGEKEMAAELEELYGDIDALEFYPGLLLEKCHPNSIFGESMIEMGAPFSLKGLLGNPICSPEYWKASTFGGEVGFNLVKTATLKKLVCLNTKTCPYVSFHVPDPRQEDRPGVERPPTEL
The data set is described as follows: Spectrophotometric assay of cox-1 (TMPD oxidation). It is filed as biochemical. The following applies: Conc. 100 μM; microsomal fraction of ram seminal vesicles; read-out: Percent inhibition COX-1. As to the method:
(§1) 1. Spectrophotometric assay of cox-1 and cox-2:
(§2) Microsomal fraction of ram seminal vesicles used as a source of cox-1 enzyme (Hemler et al., 1976) and microsomes from sf-9 cells infected with baculo virus containing human cox-2 c-DNA used as a source of cox-2 enzyme (Wanda et al., 1994). Enzyme activity was measured using a chromogenic assay based on oxidation of N,N,N′,N′-tetramethyl-p-phenylenediamine (TMPD) during the reduction of PGG2 to PGH2 as per described by Copeland et al., 1994 with following modifications. The assay mixture (1000 μl) contains […] pH 8.0, 3 μM EDTA, 15 μM hematin, 150 units enzyme and 8% DMSO. The mixture was pre-incubated at 25° C. for 15 minutes before initiation of enzyme reaction in presence of compound/vehicle. The reaction was initiated by the addition of 100 μM arachidonic acid and 120 μM TMPD. The enzyme activity is measured by estimation of the initial velocity of TMPD oxidation over the first 25 seconds of the reaction followed by increase in absorbency at […]. The IC50 values were calculated using non-linear regression analysis of percent inhibitions.

The next data set concerns the target T2, COX-1 (Homo sapiens, UniProt P23219).
T2 construct: Fresh heparinised human whole blood; endogenous in cells; host or cells: human whole blood
The data set is described as follows: Human whole blood assay, COX-1 inhibition. The format is cell-based. As for the experimental part: (§3) 2) Human Whole Blood Assay:
Fresh heparinised human whole blood was incubated with lipopolysaccharide (LPS) from E. coli at 100 μg/ml and with 2.5 μl vehicle (D)MSO) or test compound for 24 hours at 37° C. PGE2 levels in the plasma were measured using EIA kit (Cayman chemicals, USA) after deproteinization.

For data set [1], the target named is T3, COX-2 (Homo sapiens, UniProt P35354).
T3 sequence (P35354 18-604): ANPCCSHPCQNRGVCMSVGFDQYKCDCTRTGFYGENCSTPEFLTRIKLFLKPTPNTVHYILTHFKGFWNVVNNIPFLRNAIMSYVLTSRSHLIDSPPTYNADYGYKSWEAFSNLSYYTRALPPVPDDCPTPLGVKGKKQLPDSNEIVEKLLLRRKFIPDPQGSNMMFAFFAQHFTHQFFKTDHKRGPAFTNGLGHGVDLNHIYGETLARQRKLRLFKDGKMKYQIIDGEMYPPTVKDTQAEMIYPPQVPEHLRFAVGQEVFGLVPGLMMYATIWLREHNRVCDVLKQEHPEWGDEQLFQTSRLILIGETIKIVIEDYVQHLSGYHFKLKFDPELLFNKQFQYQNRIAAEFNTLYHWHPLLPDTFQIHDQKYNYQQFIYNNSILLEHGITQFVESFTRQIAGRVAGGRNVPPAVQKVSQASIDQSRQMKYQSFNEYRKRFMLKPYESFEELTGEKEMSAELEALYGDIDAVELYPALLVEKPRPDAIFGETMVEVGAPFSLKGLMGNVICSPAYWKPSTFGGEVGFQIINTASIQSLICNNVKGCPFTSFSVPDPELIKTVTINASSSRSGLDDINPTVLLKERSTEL
The experiment in a line: Human whole blood assay, COX-2 inhibition. The format is cell-based. The following applies: read-out: IC50 COX-II. Also noted: endogenous in cells; host or cells: human whole blood. As to the method:
as §3
An aliquot of fresh blood was mixed either with DMSO or test compounds and was allowed to clot for 1 hour at 37° C. TXB2 levels in the serum were measured using EIA kit (Cayman chemicals, USA) after deproteinization.

Data set [2] deals with T3, COX-2. The experiment in a line: Spectrophotometric assay of cox-2 (TMPD oxidation). Also on record: made in house; host or cells: sf-9 insect cells, baculovirus. The format is biochemical. To be noted: Conc. 100 μM; microsomes from sf-9 cells with human cox-2; read-out: Percent inhibition COX-2. As to the method:
as §1, §2

The structures appear in SMILES notation.

T2 sequence (P23219 24-599): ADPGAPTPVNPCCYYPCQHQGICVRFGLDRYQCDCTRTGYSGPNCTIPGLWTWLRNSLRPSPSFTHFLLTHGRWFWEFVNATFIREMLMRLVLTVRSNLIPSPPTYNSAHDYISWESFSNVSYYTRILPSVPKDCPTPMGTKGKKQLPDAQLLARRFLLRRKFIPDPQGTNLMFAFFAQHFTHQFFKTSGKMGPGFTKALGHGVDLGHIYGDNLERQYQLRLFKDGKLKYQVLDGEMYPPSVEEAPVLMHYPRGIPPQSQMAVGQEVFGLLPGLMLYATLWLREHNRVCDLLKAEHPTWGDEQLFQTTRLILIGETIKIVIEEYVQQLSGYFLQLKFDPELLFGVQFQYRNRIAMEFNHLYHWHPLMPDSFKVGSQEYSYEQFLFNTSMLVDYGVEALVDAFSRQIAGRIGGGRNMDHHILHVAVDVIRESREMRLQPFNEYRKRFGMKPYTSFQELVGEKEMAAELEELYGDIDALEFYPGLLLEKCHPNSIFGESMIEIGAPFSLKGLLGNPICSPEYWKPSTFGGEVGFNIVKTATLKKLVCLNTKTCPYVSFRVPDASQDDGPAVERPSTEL

A word on the inhibition: it is the relative decrease from the control value, in per cent. By IC50 is commonly meant the concentration that gives 50% inhibition. What is called melting point is the temperature of the solid-liquid transition. `CS(=O)(=O)c1ccc(C2=C(c3ccc(F)cc3)C(=O)OC2)c(F)c1` [Example 1, 3-(4-Fluorophenyl)-4-(2-fluoro-4-methylsulfonylphenyl)-2,5-dihydro-2-furanone] yielded a melting point of 160 to 162 °C. Further, the inhibition at 100 µM on cox-1 enzyme came to 33%. Inhibition on COX-1 was half-maximal at 195 ± 27.5 µM (IC50). For the same molecule, the IC50 at COX-2 [1] stood at 2.72 ± 0.425 µM. For the same molecule, the inhibition at 100 µM on COX-2 [2] amounted to 100%. `CSc1ccc(C2=C(c3ccc(F)c(F)c3)C(=O)OC2)cc1C` [Example 3, 4-(3-Methyl-4-methylsulfanylphenyl)-3-(3,4-difluorophenyl)-2,5-dihydro-2-furanone] yielded a melting point of 150 to 153 °C. Same read-out and setting: the value for `CSc1ccc(C2=C(c3ccccc3)C(=O)OC2)cc1C` [Example 5, 4-(3-Methyl-4-methylsulfanylphenyl)-3-phenyl-2,5-dihydro-2-furanone] was 150 to 153 °C; that for `CSc1ccc(C2=C(c3ccc(F)cc3)C(=O)OC2)cc1C` [Example 7, 4-(3-Methyl-4-methylsulfanylphenyl)-3-(4-fluorophenyl)-2,5-dihydro-2-furanone] was 126 to 130 °C.

Molecule `CSc1ccc(C2=C(c3ccc(C)cc3)C(=O)OC2)cc1C` [Example 8, 4-(3-Methyl-4-methylsulfanylphenyl)-3-(4-methylphenyl)-2,5-dihydro-2-furanone] had a melting point of 144 to 147 °C. Turning to `CSc1ccc(C2=C(c3ccc(CC(C)C)cc3)C(=O)OC2)cc1C` [Example 11, 4-(3-Methyl-4-methylsulfanylphenyl)-3-(4-isobutylphenyl)-2,5-dihydro-2-furanone], the melting point was 146 to 149 °C. With `COc1ccc(C2=C(c3ccc(SC)c(C)c3)COC2=O)cc1` [Example 12, 4-(3-Methyl-4-methylsulfanylphenyl)-3-(4-methoxyphenyl)-2,5-dihydro-2-furanone], the melting point lay in the range of 147 to 150 °C. The molecule `COc1cc(C2=C(c3ccccc3)C(=O)OC2)ccc1SC` [Example 14, 3-Phenyl-4-(3-methoxy-4-methylsulfanylphenyl)-2,5-dihydro-2-furanone] yielded a melting point of 142 to 144 °C.

With `CSc1ccc(C2=C(c3ccc(C(F)(F)F)cc3)C(=O)OC2)cc1C` [Example 16, 4-(3-Methyl-4-methylsulfanylphenyl)-3-(4-trifluoromethylphenyl)-2,5-dihydro-2-furanone], the melting point was in the range of 140 to 143 °C.

Molecule `CSc1ccc(C2=C(c3ccccc3)C(=O)OC2)c(F)c1` [Example 18, 4-(2-Fluoro-4-methylsulfanylphenyl)-3-phenyl-2,5-dihydro-2-furanone] returned a melting point of 145 to 147 °C. In turn, `CSc1ccc(C2=C(c3ccccc3)C(=O)OC2)cc1Cl` [Example 20, 4-(4-Methylsulfanyl-3-chlorophenyl)-3-phenyl-2,5-dihydro-2-furanone] registered a melting point of 151 to 152 °C.

`CSc1ccc(C2=C(c3ccc(SC)c(Cl)c3)COC2=O)cc1` [Example 21, 3-(4-Methylsulfanylphenyl)-4-(3-chloro-4-methylsulfanylphenyl)-2,5-dihydro-2-furanone] registered a melting point of 157 to 158 °C. The same measure, in the same setting: the value for `CSc1ccc(C2=C(c3ccc(F)c(F)c3)C(=O)OC2)cc1Cl` [Example 22, 4-(4-Methylsulfanyl-3-chlorophenyl)-3-(3,4-difluorophenyl)-2,5-dihydro-2-furanone] was 151 to 152 °C; that for `CSc1ccc(C2=C(c3ccccc3)C(=O)OC2)cc1F` [Example 23, 4-(4-Methylsulfanyl-3-fluorophenyl)-3-phenyl-2,5-dihydro-2-furanone] was 145 to 146 °C; that for `CSc1ccc(C2=C(c3ccc(SC)c(F)c3)COC2=O)cc1` [Example 24, 4-(4-Methylsulfanyl-3-fluorophenyl)-3-(4-methylsulfanylphenyl)-2,5-dihydro-2-furanone] was 161 to 162 °C.

The molecule `CSc1ccc(C2=C(c3ccc(C)cc3)C(=O)OC2)cc1Cl` [Example 26, 4-(4-Methylsulfanyl-3-chlorophenyl)-3-(4-methylphenyl)-2,5-dihydro-2-furanone] yielded a melting point of 147 to 149 °C. `CSc1ccc(C2=C(c3ccc(C)cc3)C(=O)OC2)cc1F` [Example 27, 4-(4-Methylsulfanyl-3-fluorophenyl)-3-(4-methylphenyl)-2,5-dihydro-2-furanone] displayed a melting point of 159 to 160 °C. Take `COOSc1ccc(C2=C(c3ccc(C)cc3)C(=O)OC2)cc1Cl` [Example 29]: the melting point was in the range of 164 to 166 °C.

For `CSc1ccc(C2=C(c3ccc(CC(C)C)cc3)C(=O)OC2)c(F)c1` [Example 35, 4-(2-Fluoro-4-methylsulfanylphenyl)-3-(4-isobutylphenyl)-2,5-dihydro-2-furanone], the melting point lay within 92 to 94 °C. Same read-out and setting: for `COc1ccc(C2=C(c3ccc(SC)c(F)c3)COC2=O)cc1` [Example 38, 4-(4-Methylsulfanyl-3-fluorophenyl)-3-(4-methoxyphenyl)-2,5-dihydro-2-furanone] the value was 122 to 124 °C; for `CSc1ccc(C2=C(c3ccc(F)cc3)C(=O)OC2)c(F)c1` [Example 42, 4-(2-Fluoro-4-methylsulfanylphenyl)-3-(4-fluorophenyl)-2,5-dihydro-2-furanone], 118 °C.

The molecule `CS(=O)(=O)c1ccc(C2=C(c3cccc4ccccc34)C(=O)OC2)c(F)c1` [Example 54, 4-(2-Fluoro-4-methylsulfonylphenyl)-3-(1-naphthyl)-2,5-dihydro-2-furanone] gave a melting point of 145 to 148 °C.

`CC1(C)OC(=O)C(c2ccc(F)cc2)=C1c1ccc(S(C)(=O)=O)c(CN2CCOCC2)c1` [Example 67, 3-(4-Fluorophenyl)-5,5-dimethyl-4-(4-methylsulfonyl-3-morpholinomethylphenyl)-2,5-dihydro-2-furanone] registered a melting point of 127 to 130 °C. On to `CCC1OC(=O)C(c2ccc(SC)c(C)c2)=C1c1ccc(S(C)(=O)=O)c(F)c1` (stereo not shown) [Example 71, 5-Ethyl-4-(3-fluoro-4-methylsulfonylphenyl)-3-(3-methyl-4-methylsulfanylphenyl)-2,5-dihydro-2-furanone], for which the melting point was 148 to 150 °C. On cox-1 enzyme, the inhibition at 100 µM was 3%. Moreover, on COX-2 [2], the inhibition at 100 µM amounted to 99%.

The molecule `CS(=O)(=O)c1ccc(C2=C(c3ccccc3)C(=O)N(c3ccc(F)cc3)C2=O)c(F)c1` [Example 98, 3-(2-Fluoro-4-methylsulfonylphenyl)-1-(4-fluorophenyl)-4-phenyl-2,5-dihydro-1H-2,5-azoledione] yielded a melting point of 198 to 200 °C.
